Series [1] relates to E. coli F470 (waaP−)/waaPPa(D163E). Put plainly: MIC of novobiocin and SDS, in vivo complementation assay. The series is classed as cell-based. The source says: (§1) Site-directed mutagenesis and in vivo complementation assay—waaP was amplified by polymerase chain reaction (PCR) from pCOREc1 (de Kievit and Lam, 1997) with the flanking up- and down-stream primers ^5′[…]^3′ (SEQ ID NO: 3) and ^5′[…]^3′ (SEQ ID NO: 4) containing Baam HI and Hind III respectively. The PCR product was cloned into the complementation vector pUCP26 (West, 1994) as a positive control for complementation assay. Mutations of waaP were introduced by the method of “overlapping extension” as described by Horton (Horton, 1993) using PCR with the flanking primers as well as the primers shown below. K69A mutation was introduced with the primer (only up-strand was described here) ^5′[…]^3′ (SEQ ID NO: 5); K69R with ^5′[…]^3′ (SEQ ID NO: 6); D163A with ^5′[…]^3′ (SEQ ID NO: 7); and D163E with ^5′[…]^3′ (SEQ ID NO: 8). Underlined nucleotides indicated the mutations. The PCR products were then cloned into pUCP26 at Bam HI and Hind III sites respectively, and transformed into E. coli F470 7waaP- (Yethon 1998). Constructs of the mutations of waaP were sequenced to confirm the mutation. In vivo complementation was tested for the minimum inhibition concentration (MIC) of SDS and novobiocin, respectively according to Walsh, et al. 2000. E. coli F470 7waaP- was used as the negative control.
(§2) To validate the accuracy of the alignment comparisons in FIG. 2, site-directed mutagenesis of waaPPa was performed targeting on K^69 and […], respectively. The effect of the site-directed mutation was evaluated by their ability to complement waaP-Ec. It is noteworthy that the complementation assay was performed using waaP-Ec since waaP mutation is lethal to P. aeruginosa. In Table I, the complementation of waaP-Ec by wild type waaPPa increased the MICs of waaP-Ec by 3 and 30 times to novobiocin and SDS, respectively. However, the MICs of all the mutants were at the same level as that of waaP-Ec.

Series [2] deals with E. coli F470 (waaP−)/waaPPa. The series is described as above. The series is classed as cell-based. The conditions noted are these: for increase of the MIC of waaP-Ec by complementation with wild type waaPPa: versus E. coli F470 waaP− mutant.
Text: as §1, §2

In series [3] the test system is E. coli F470 (waaP−)/waaPPa(D163A). Described as above. The format is cell-based.
Text: as §1, §2

The subject of series [4] is E. coli F470 (waaP−)/waaPPa(K69A). The series is described as above. The series is classed as cell-based.
Text: as §1, §2

Series [5] has as its system E. coli F470 (waaP−)/waaPPa(K69R). The series is described as above. The format is cell-based.
Text: as §1, §2

Another series has as its system E. coli F470 (waaP−). The description is as above. The format is cell-based.
Text: as §1, §2

The subject of the next series is F470 (wild type). Described as above. The series is classed as cell-based, E. coli. An excerpt: Site-directed mutagenesis and in vivo complementation assay—waaP was amplified by polymerase chain reaction (PCR) from pCOREc1 (de Kievit and Lam, 1997) with the flanking up- and down-stream primers ^5′[…]^3′ (SEQ ID NO: 3) and ^5′[…]^3′ (SEQ ID NO: 4) containing Baam HI and Hind III respectively. The PCR product was cloned into the complementation vector pUCP26 (West, 1994) as a positive control for complementation assay. Mutations of waaP were introduced by the method of “overlapping extension” as described by Horton (Horton, 1993) using PCR with the flanking primers as well as the primers shown below. K69A mutation was introduced with the primer (only up-strand was described here) ^5′[…]^3′ (SEQ ID NO: 5); K69R with ^5′[…]^3′ (SEQ ID NO: 6); D163A with ^5′[…]^3′ (SEQ ID NO: 7); and D163E with ^5′[…]^3′ (SEQ ID NO: 8). Underlined nucleotides indicated the mutations. The PCR products were then cloned into pUCP26 at Bam HI and Hind III sites respectively, and transformed into E. coli F470 7waaP- (Yethon 1998). Constructs of the mutations of waaP were sequenced to confirm the mutation. […]
To validate the accuracy of the alignment comparisons in FIG. 2, site-directed mutagenesis of waaPPa was performed targeting on K^69 and […], respectively. The effect of the site-directed mutation was evaluated by their ability to complement waaP-Ec. […]

Series [6] has as its target T1, WaaP from E. coli (WaaPEc) (Escherichia coli, UniProt Q9R9D6).
T1 construct: His-tag (N)
The conditions noted are these: cited from earlier work.

In a further series the target is T2, WaaPHisC (Pseudomonas aeruginosa, UniProt Q9HUF7).
T2 construct: made in house; host or cells: E. coli BL21(DE3)pLysS, vector pET30a(+)
The series is classed as biochemical, P. aeruginosa. As for the experimental part:
Antigen coating was accomplished by adding 50 μl LPS or enzyme reaction mixture to each well and then mixing with equal amount of chloroform-ethanol ([…]/EtOH) (1:10, v/v)). The plate was incubated at room temperature in the fume hood (flow rate at 150 ft·min^−1) overnight to allow the evaporation of the solvent. The ELISA was performed according to Bantroch et al. (1994) (Bantroch, 1994) with the following modifications. […] For the colorimetric method (Bantroch, 1994), the ELISA was developed at 37° C. for 2 h and the optical density at 405 nm was determined on a microplate reader (Flow Laboratories, Mississauga, ON). For the chemiluminescence development, 100 μl of the chemiluminescence substrate CDP-Star® Ready-to-Use with Emerald-II™ (CDP*) (Applied Biosystems, Bedford, Mass.) with 1:5 (v/v) diluted in diethanolamine buffer (9.6% (v/v) and 0.01% (w/v) MgCl2, pH 9.8) was added to each well. After incubation at room temperature for 20 min, the response of chemiluminescence was measured on a 1420-VICTOR^2 Multilabel Counter (Wallac, Montreal, QC) using chemiluminescence program.
The reaction mixture was incubated at 37° C. for 30 min (15 min for kinetics experiments) and quenched by the addition of 50 μl chloroform/ethanol (1:10) solution. The plate was then left at room temperature in the fume hood overnight and subjected to ELISA the next morning. PAO1-LPS was used as the standard to quantify phosphorylated LPS.
Therefore, the reactions on the kinetics studies measured the phosphorylation within the initial 15 min.

Bounds are passed on as bounds.

What is called MIC is the lowest concentration that inhibits growth of the organism. The Km is the substrate concentration at which the rate is half of its maximum. For orientation: Vmax means the rate approached at saturating substrate. Usually kcat stands for the number of substrate molecules converted per active site and unit of time at saturation.

T1 sequence (Q9R9D6 whole entry): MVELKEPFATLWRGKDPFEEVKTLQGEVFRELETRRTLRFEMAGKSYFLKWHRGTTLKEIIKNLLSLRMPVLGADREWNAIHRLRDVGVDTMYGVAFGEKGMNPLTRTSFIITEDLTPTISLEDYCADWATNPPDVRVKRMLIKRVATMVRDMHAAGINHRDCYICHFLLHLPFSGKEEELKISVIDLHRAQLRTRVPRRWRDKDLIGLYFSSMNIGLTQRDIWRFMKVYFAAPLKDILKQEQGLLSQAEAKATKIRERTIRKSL

In the case of `CCCCCCCCCCCCOS(=O)(=O)[O-].[Na+]` [SDS], the MIC is 200 µg/mL in [1] (strain E. coli F470 (waaP−)/waaPPa(D163E)); 12,500 μg.ml^−1 in series [2] (strain E. coli F470 (waaP−) complemented with wild type waaPPa); 400 µg/mL in series [3] (strain E. coli F470 (waaP−)/waaPPa(D163A)); 400 µg/mL in series [4] (strain E. coli F470 (waaP−)/waaPPa(K69A)); 400 µg/mL in [5] (strain E. coli F470 (waaP−)/waaPPa(K69R)); 400 µg/mL with E. coli F470 (waaP−) (strain E. coli F470 (waaP−)). Moreover, the MIC in the series with F470 (wild type) (strain F470 (wild type)) is >50,000 μg.ml^−1. Also, in series [2], the “increase of the MIC of waaP-Ec by complementation with wild type waaPPa” value was 30 times.
Turning to `CO[C@@H]1[C@@H](OC(N)=O)[C@@H](O)[C@H](Oc2ccc3c(O)c(NC(=O)c4ccc(O)c(CC=C(C)C)c4)c(=O)oc3c2C)OC1(C)C` [Novobiocin, novobiocin], the MIC worked out at 50 µg/mL in [1] (Escherichia coli); 150 µg/mL in series [2] (Escherichia coli); 25 µg/mL in [3] (Escherichia coli); 50 µg/mL in series [4] (Escherichia coli); 50 µg/mL in [5] (Escherichia coli); 50 µg/mL with E. coli F470 (waaP−) (Escherichia coli). In addition, in the series with F470 (wild type) (Escherichia coli), the MIC is above 200 µg/mL. In addition, the “increase of the MIC of waaP-Ec by complementation with wild type waaPPa” value in series [2] came out at 3 times.
Take `Nc1ncnc2c1ncn2[C@@H]1O[C@H](COP(=O)(O)OP(=O)(O)OP(=O)(O)O)[C@@H](O)[C@H]1O` [ATP, adenosine triphosphate]: the Km in series [6] is 130 µM.

B1: WaaPHisC: recombinant P. aeruginosa WaaP with C-terminal 6×His tag, heptose/tyrosine kinase (protein, UniProt Q9HUF7 1-268, looked up)
Lipopolysaccharide core …: MRLVLEEPFKRLWNGRDPFEAVEALQGKVYRELEGRRTLRTEVDGRGYFVKIHRGIGWGEIAKNLLTAKLPVLGARQEWQAIRRLHEAGVATMTAVAYGERGSDPARQHSFIVTEELAPTVDLEVFSQDWRERPPPPRLKRALVEAVARMVGDMHRAGVNHRDCYICHFLLHTDKPVSADDFRLSVIDLHRAQTRDATPKRWRNKDLAALYFSALDIGLTRRDKLRFLRTYFRRPLREILRDEAGLLAWMERKAEKLYERKQRYGDLL
modifications: C-terminal 6xHis tag
notes: recombinant P. aeruginosa WaaP with C-terminal 6×His tag, heptose/tyrosine kinase
Turning to B1, in the series with WaaPHisC (phosphorylation of HF-LPS), the Vmax was found to be 408.24 pmol/min and the kcat worked out at 0.4538 s⁻¹. The “enzyme activity remained after storage” value with WaaPHisC (storage at −20° C. for 7 days) is “about 70%”.

Values taken from US20030017518A1, “Non-radio-active assay of LPS kinases” (priority 2001, published 2003).
